Results: paper PMC8312697, “Mechanistic Investigations Support Liver Safety of Ubrogepant” (Toxicological Sciences, 2020)

Key:
[1] = molecular target: T1, bile salt export pump (BSEP) (Homo sapiens, UniProt O95342); experiment: HEPATOPAC taurocholic acid transport / bile acid excretion; type: cell-based
T1 construct: host or cells: human hepatocytes in HEPATOPAC micropatterned co-culture
Text: The human HEPATOPAC model was also used to measure the effects of test agents on transport of taurocholic acid as an indicator of altered bile salt export pump (BSEP) function ([Li et al., 2017]). Safe dose perspective is gained from comparing in vitro concentration response results to calculated liver inlet Cmax (maximum plasma concentration).

dog = experiment: Conventional nonclinical toxicology study, dog; details: 1M dog
NTCP = molecular target: T2, NTCP (Homo sapiens, UniProt Q14973); experiment: NTCP uptake transporter inhibition assay; type: cell-based; details: for inhibition of NTCP-mediated probe substrate transport: uptake transporter inhibition assay
T2 construct: expressed in transfected cells; host or cells: CHO (telcagepant); HEK293 (ubrogepant, MK-3207)
T2 sequence (Q14973 1-349): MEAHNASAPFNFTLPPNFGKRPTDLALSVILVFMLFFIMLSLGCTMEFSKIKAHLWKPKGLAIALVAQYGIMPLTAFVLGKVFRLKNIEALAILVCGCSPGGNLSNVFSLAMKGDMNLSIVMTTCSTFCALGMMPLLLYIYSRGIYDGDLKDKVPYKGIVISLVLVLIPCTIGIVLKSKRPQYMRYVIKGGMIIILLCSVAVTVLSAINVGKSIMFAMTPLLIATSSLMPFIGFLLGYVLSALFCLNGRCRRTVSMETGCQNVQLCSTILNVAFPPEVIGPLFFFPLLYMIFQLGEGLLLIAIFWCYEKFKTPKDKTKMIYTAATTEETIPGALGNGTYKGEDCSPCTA
Procedure: To assess the functional impact of ubrogepant on the human ABC efflux transporters BSEP, MRP3, and MRP4, in vitro vesicular transport inhibition assays were conducted by Solvo Biotechnology (Szeged, Hungary). The ability of ubrogepant to inhibit the BSEP-mediated transport (and accumulation) of a probe substrate was tested at concentrations ranging from 0.04 – 30 μM, where the latter defined the upper limit of compound solubility in the BSEP assay buffer. For the MRP3 and MRP4 vesicle-based transporter assessments, ubrogepant concentrations of 0.1 to 70 μM were used. To assess the functional impact of ubrogepant on the human SLC (uptake) transporter NTCP, in vitro experiments were performed using HEK293 cells stably expressing NTCP. The ability of ubrogepant to inhibit NTCP-mediated uptake (and accumulation) of taurocholate was tested at concentrations ranging from 0.04 – 30 μM.
To assess the functional impact of MK-3207 on the human ABC efflux transporters BSEP, MRP3 and MRP4, in vitro vesicular transport inhibition assays were conducted by Solvo Biotechnology (Szeged, Hungary) and overseen by DSSI. BSEP transport was assessed in the presence of 0.5-30 µM MK-3207; MRP3 and MRP4 transport was assessed in the presence of 0.11-80 µM MK-3207. The upper limits of these ranges were determined by compound solubility in each assay buffer. NTCP transporter inhibition was assessed in NTCP-expressing HEK293 cells in the presence of 0.03 – 25 µM MK-3207.

T1 sequence (O95342 whole entry): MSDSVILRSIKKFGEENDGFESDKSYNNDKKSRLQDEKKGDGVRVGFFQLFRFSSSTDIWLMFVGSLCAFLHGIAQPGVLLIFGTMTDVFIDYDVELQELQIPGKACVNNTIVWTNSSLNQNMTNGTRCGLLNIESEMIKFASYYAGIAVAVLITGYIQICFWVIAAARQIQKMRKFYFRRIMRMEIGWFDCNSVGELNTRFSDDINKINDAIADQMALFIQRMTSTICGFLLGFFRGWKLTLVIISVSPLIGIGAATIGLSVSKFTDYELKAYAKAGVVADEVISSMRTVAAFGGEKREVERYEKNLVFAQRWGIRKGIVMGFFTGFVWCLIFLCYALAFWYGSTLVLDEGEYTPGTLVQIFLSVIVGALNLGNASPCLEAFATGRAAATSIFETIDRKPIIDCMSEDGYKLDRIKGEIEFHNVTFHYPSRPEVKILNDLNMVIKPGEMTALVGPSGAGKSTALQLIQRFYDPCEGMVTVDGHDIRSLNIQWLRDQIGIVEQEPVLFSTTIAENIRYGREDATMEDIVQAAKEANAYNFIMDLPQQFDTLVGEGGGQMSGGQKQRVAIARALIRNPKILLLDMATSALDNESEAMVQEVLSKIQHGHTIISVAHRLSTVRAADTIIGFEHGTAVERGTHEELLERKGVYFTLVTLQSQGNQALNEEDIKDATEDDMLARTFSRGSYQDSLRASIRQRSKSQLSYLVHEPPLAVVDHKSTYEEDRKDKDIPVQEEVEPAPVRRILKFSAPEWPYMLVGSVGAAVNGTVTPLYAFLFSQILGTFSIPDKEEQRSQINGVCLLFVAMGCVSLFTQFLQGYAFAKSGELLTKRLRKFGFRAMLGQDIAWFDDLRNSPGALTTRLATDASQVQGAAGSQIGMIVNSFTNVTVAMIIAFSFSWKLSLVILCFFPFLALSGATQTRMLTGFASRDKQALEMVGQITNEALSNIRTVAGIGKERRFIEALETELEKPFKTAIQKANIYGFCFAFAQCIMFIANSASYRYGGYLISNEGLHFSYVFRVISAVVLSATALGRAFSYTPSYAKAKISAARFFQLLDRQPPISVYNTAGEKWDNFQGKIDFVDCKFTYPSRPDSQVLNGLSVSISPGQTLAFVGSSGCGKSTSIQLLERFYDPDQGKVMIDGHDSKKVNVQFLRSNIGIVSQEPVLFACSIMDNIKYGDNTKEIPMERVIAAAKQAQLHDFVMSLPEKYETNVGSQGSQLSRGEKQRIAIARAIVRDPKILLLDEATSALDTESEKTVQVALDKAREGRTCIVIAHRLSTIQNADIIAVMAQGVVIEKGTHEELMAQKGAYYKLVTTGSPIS

| Structure (SMILES) | effect on bile acid excretion ([1]; 4.4× estimated unbound liver Cmax (highest testable concentration, solubility)) | Pivotal conventional nonclinical toxicology study liver findings (dog) | exposure margin (dog) | inhibition of NTCP-mediated probe substrate transport (NTCP) | effect on bile acid excretion ([1]; 10.7× estimated unbound liver Cmax) | NTCP inhibition (NTCP; CHO cells expressing NTCP, up to 25 μM) | IC50 (NTCP; taurocholate uptake, read-out: NTCP estimated IC50) |
| --- | --- | --- | --- | --- | --- | --- | --- |
| O=C(CN1C(=O)C2(CCCC2)NC[C@H]1c1cc(F)cc(F)c1)Nc1ccc2c(c1)C[C@@]1(C2)C(=O)Nc2ncccc21 [MK-3207] | no significant impact was observed on biliary excretion | slight periportal vacuolation with < 4× ALT/AST associated with excessive body weight loss | 17 × | No inhibition was observed |  |  |  |
| O=C(N[C@@H]1CC[C@@H](c2cccc(F)c2F)CN(CC(F)(F)F)C1=O)N1CCC(n2c(=O)[nH]c3ncccc32)CC1 [Telcagepant] |  |  |  | inhibited | No effect on bile acid excretion | > 50% | 19.4 µM |
